# Laboratory results from the supplement of paper PMC11208160.
# Assay: recombinant UMI read abundance after kanamycin selection (control-corrected) (log10(CPM+1)); higher = more efficient recombination; extreme values may be limits of the assay; sequences stand for … in AGTGCAGAGAAAATCGGCCAGTTTTCTCTGCCTGCAGTCCGCATGCCGTGGGACCCCTTGGGTTCTAACCTGTTGCCTAGATTTATGCAGCGGACTGCCTTTCTCCCAAAGTGATAAACCGG…AGGTTGGTTTCACT; site = the 11-nt donor
# In short: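 Sequenced counts of recombinant UMIs were turned into CPM, averaged across replicates and scaled with control-derived factors. The reported figure is log10(CPM+1). Those UMIs, each 12 nt long, tagged donor and donor-binding-loop pairs on a plasmid with a promoterless kanamycin gene, screened as a pool in Escherichia coli with IPTG (0.07 mM) plus kanamycin or without selection.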
# 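Also: IS621 bridge recombinase in Escherichia coli cells against a fixed T5 target plasmid.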
row,Sequence,recombinant UMI read abundance (log10)
1,GTAGTGACATGGACCGGTTTTCCCGGTAATCCGTATTTGCC (site GTAGTGACTGG),2.58
2,GTATAGGCATGGACCGGTTTTCCCGGTAATCCGTATTTGTA (site GTATAGGCTTA),2.22
3,GTATCTCCATGGACCGGTTTTCCCGGTAATCCGTATTTGAA (site GTATCTCCTTT),1.19
4,GTATGAACATGGACCGGTTTTCCCGGTAATCCGTATTTGAG (site GTATGAACTCT),1.87
5,GTATGCACATGGACCGGTTTTCCCGGTAATCCGTATTTGGA (site GTATGCACTTA),0.901
6,GTATGCACATGGACCGGTTTTCCCGGTAATCCGTATTTGGA (site GTATGCACTTC),0.931
7,GTATGCACATGGACCGGTTTTCCCGGTAATCCGTATTTGGA (site GTATGCACTTG),0.783
8,GTATGCACATGGACCGGTTTTCCCGGTAATCCGTATTTGGA (site GTATGCACTTT),0.924
9,GTATGGCCATGGACCGGTTTTCCCGGTAATCCGTATTTGCA (site GAATGGCCTTG),0
10,GTATGGCCATGGACCGGTTTTCCCGGTAATCCGTATTTGCA (site GCATGGCCTTG),0
11,GTATGGCCATGGACCGGTTTTCCCGGTAATCCGTATTTGCA (site GGATGGCCTTG),0
12,GTATGGCCATGGACCGGTTTTCCCGGTAATCCGTATTTGCA (site GTATGGCCTTG),0
13,GTATGTTCATGGACCGGTTTTCCCGGTAATCCGTATTTGAG (site GTATGTTCTCT),2.52
14,GTATTACCATGGACCGGTTTTCCCGGTAATCCGTATTTGCA (site GTATTACCTTG),0
15,GTATTATCATGGACCGGTTTTCCCGGTAATCCGTATTTGAC (site CTAGTATCTGT),1.38
16,GTATTATCATGGACCGGTTTTCCCGGTAATCCGTATTTGAC (site GTATTATCTGT),2.66
17,GTCAAACCATGGACCGGTTTTCCCGGTAATCCGTATTTGGT (site GACAAACCTAC),0
18,GTCAAACCATGGACCGGTTTTCCCGGTAATCCGTATTTGGT (site GCCAAACCTAC),0
19,GTCAAACCATGGACCGGTTTTCCCGGTAATCCGTATTTGGT (site GGCAAACCTAC),0

row,Sequence,recombinant UMI read abundance (log10)
1,GTCAAACCATGGACCGGTTTTCCCGGTAATCCGTATTTGGT (site GTCAAACCTAC),0
2,GTCACACCATGGACCGGTTTTCCCGGTAATCCGTATTTGTT (site GTCACACCTAA),0.00382
3,GTCACGACATGGACCGGTTTTCCCGGTAATCCGTATTTGGT (site GTCACGACTAC),1.06
4,GTCACTGCATGGACCGGTTTTCCCGGTAATCCGTATTTGAT (site GTCACTGCTAT),1.99
5,GTCAGAACATGGACCGGTTTTCCCGGTAATCCGTATTTGGC (site GTAAGAACTGC),0.371
6,GTCAGAACATGGACCGGTTTTCCCGGTAATCCGTATTTGGC (site GTCAGAACTGC),1.57
7,GTCAGAACATGGACCGGTTTTCCCGGTAATCCGTATTTGGC (site GTGAGAACTGC),0
8,GTCAGAACATGGACCGGTTTTCCCGGTAATCCGTATTTGGC (site GTTAGAACTGC),0
9,GTCAGCCCATGGACCGGTTTTCCCGGTAATCCGTATTTGAC (site GTCAGCCCTGT),1.33
10,GTCAGCGCATGGACCGGTTTTCCCGGTAATCCGTATTTGGC (site GTCAGCGCTGC),2.6
11,GTCATAGCATGGACCGGTTTTCCCGGTAATCCGTATTTGTT (site GTCATAGCTAA),2.1
12,GTCATCGCATGGACCGGTTTTCCCGGTAATCCGTATTTGCC (site GTCATCGCTGG),2.35
13,GTCCCCGCATGGACCGGTTTTCCCGGTAATCCGTATTTGTA (site GTCCCCGCTTA),1.13
14,GTCCCTACATGGACCGGTTTTCCCGGTAATCCGTATTTGAG (site ATCCCTACTCT),0.0134
15,GTCCCTACATGGACCGGTTTTCCCGGTAATCCGTATTTGAG (site CTCCCTACTCT),0.0129
16,GTCCCTACATGGACCGGTTTTCCCGGTAATCCGTATTTGAG (site GTCCCTACTCT),0.168
17,GTCCCTACATGGACCGGTTTTCCCGGTAATCCGTATTTGAG (site TTCCCTACTCT),0.00698
18,GTCGCCACATGGACCGGTTTTCCCGGTAATCCGTATTTGGA (site GTCGCCACTTC),0.751
19,GTCGGCACATGGACCGGTTTTCCCGGTAATCCGTATTTGAC (site GTCGGCACTGT),2.04

row,Sequence,recombinant UMI read abundance (log10)
1,GTCGGTACATGGACCGGTTTTCCCGGTAATCCGTATTTGAC (site GTAGGTACTGT),0.298
2,GTCGGTACATGGACCGGTTTTCCCGGTAATCCGTATTTGAC (site GTCGGTACTGT),1.32
3,GTCGGTACATGGACCGGTTTTCCCGGTAATCCGTATTTGAC (site GTGGGTACTGT),0
4,GTCGGTACATGGACCGGTTTTCCCGGTAATCCGTATTTGAC (site GTTGGTACTGT),0
5,GTCGTCGCATGGACCGGTTTTCCCGGTAATCCGTATTTGCG (site GTAGTCGCTCG),0.0332
6,GTCGTCGCATGGACCGGTTTTCCCGGTAATCCGTATTTGCG (site GTCGTCGCTCG),0.512
7,GTCGTCGCATGGACCGGTTTTCCCGGTAATCCGTATTTGCG (site GTGGTCGCTCG),0.00908
8,GTCGTCGCATGGACCGGTTTTCCCGGTAATCCGTATTTGCG (site GTTGTCGCTCG),0.0186
9,GTCGTTACATGGACCGGTTTTCCCGGTAATCCGTATTTGGC (site GTCGTTACTGC),1.78
10,GTCTAAACATGGACCGGTTTTCCCGGTAATCCGTATTTGTG (site GTCTAAACTCA),1.09
11,GTCTATACATGGACCGGTTTTCCCGGTAATCCGTATTTGGA (site GTCTATACTTC),1.08
12,GTCTGATCATGGACCGGTTTTCCCGGTAATCCGTATTTGAA (site GTCTGATCTTT),1.66
13,GTGAAAACATGGACCGGTTTTCCCGGTAATCCGTATTTGCT (site GAGAAAACTAG),0.918
14,GTGAAAACATGGACCGGTTTTCCCGGTAATCCGTATTTGCT (site GCGAAAACTAG),0
15,GTGAAAACATGGACCGGTTTTCCCGGTAATCCGTATTTGCT (site GGGAAAACTAG),0
16,GTGAAAACATGGACCGGTTTTCCCGGTAATCCGTATTTGCT (site GTGAAAACTAG),1.46
17,GTGAAACCATGGACCGGTTTTCCCGGTAATCCGTATTTGAT (site GTGAAACCTAT),0
18,GTGAGAACATGGACCGGTTTTCCCGGTAATCCGTATTTGCT (site GTGAGAACTAG),2.25
19,GTGAGGGCATGGACCGGTTTTCCCGGTAATCCGTATTTGAA (site GTGAGGGCTTT),1.83
